Data from PubChem BioAssay AID504861 (Broad Institute, 2011).
Activity calls are given as the source filed them.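 Rule for the calls: active = compounds lowering cell viability signal with fitted half-maximal concentration at most ten times their highest tested concentration; inconclusive = flat fit with 30 to 70% signal loss, or poor fit; inactive = the rest.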

What follows are compounds tested on HEK293T viability, CellTiter-Glo ATP luminescence, 48 h (assay: cytotoxicity in HEK293T cells – cell-based, CellTiter-Glo luminescence, cherry-picks, cytotoxicity control for LMP1 NF-kB inhibitor project, dose response (AID 504861)).

| Structure (SMILES) | AC50 |
| --- | --- |
| NC(=S)NN=Cc1nccc2c(C(F)(F)C(F)(F)C(F)(F)F)cccc12 | 1.52 µM |
| O=C(/C=C/c1ccco1)Oc1cc(Br)cc(/C=N/NC(=O)c2ccccc2O)c1 | 3.47 µM |
| Cc1oc2c(c1C(=O)c1ccc(Cl)cc1)C(=O)C(=O)c1ccccc1-2 | 4.37 µM |
| O=C(Nc1ccc2c(c1)OCCO2)c1ccccn1 | 21.2 µM |
| CCCC(=O)NC(c1cccc([N+](=O)[O-])c1)c1ccc2cccnc2c1O (configuration not stated) | 3.59 µM |
| COc1ccc(O)c(/C=N/Nc2nc(Nc3ccccc3)nc(-n3nc(C)cc3C)n2)c1 | 7.55 µM |
| O=C1C(=C(c2ccccc2)N2CCOCC2)Cc2ccccc21 | 1.38 µM |
| OC1(c2cccc(C(F)(F)F)c2)CCN(c2ncnc3c2[nH]c2ccc(F)cc23)CC1 | 17.8 µM |
| COc1ccc(-c2nc(-c3cccs3)no2)cc1 | > 26 µM (inactive) |
| Fc1ccc2[nH]c3c(N4CCSCC4)ncnc3c2c1 | 9.97 µM |
| CCOc1ccc(OCc2cccc(C(=O)N/N=C/c3cccnc3)c2)cc1 | > 26 µM (inactive) |
| O=C(Nc1nnc(SCc2ccc(F)cc2)s1)c1ccccn1 | 25.9 µM |
| COc1ccc(C(=O)NC2CCCc3c2cnn3-c2cccc(C)c2C)c(OC)n1 (configuration not stated) | 24.1 µM |
| CCCCC(=O)NC(c1cccc([N+](=O)[O-])c1)c1ccc2cccnc2c1O (configuration not stated) | 3.93 µM |
| C=C1C(=O)C2=CC1CCC(=O)C1(C)CCC(OC(C)=O)C(C)(C)C1CC2O (configuration not stated) | 11.3 µM |
| NC(=S)N/N=C/c1ncc(C(F)(F)F)cc1Cl | 17.9 µM |
| COc1ccccc1NC(=S)NN=C(C)c1ccccn1 | 0.403 µM |
| CC(=NNC(=S)Nc1ccccc1)c1ccccn1 | 1.56 µM |
| Cc1ccc2[nH]c(C(=O)N/N=C/c3ccccc3O)c(C)c2c1 | 3.52 µM |
| CCN1CCN(Cc2ccc(NC(=O)c3ccc(C)c(NC(=O)c4cccc5[nH]ccc45)c3)cc2C(F)(F)F)CC1 | 22.3 µM |
| Cc1cc(=O)[nH]c(NN=Cc2cc(Br)ccc2O)n1 | 3.36 µM |
| O=C(O)c1cc(/C=C/c2ccc(N3CCOCC3)cc2)nc2ccccc12 | > 26 µM (inactive) |
| COc1ccc2[nH]c(-c3ccc(C)cc3)cc(=O)c2c1 | > 26 µM (inactive) |
| CC(=NNC(=S)N1CCCC1)c1ccccn1 | 4.56 µM |
| CCOc1ccc(Br)cc1/C(C)=N\NC1=NCCN1 | 3.69 µM |

| Structure (SMILES) | AC50 |
| --- | --- |
| COc1ccccc1/C=C/C(=O)c1ccc(Cl)cc1 | 12.4 µM |
| CCN1C(=O)[C@@H]2[C@@H](c3ccc(-c4ccc(Cl)c(Cl)c4)cc3)N3CCC[C@@]3(C(=O)OC)[C@@H]2C1=O | > 26 µM (inactive) |
| CC(=O)NC(c1ccc(C(C)C)cc1)c1ccc2cccnc2c1O (configuration not stated) | 1.2 µM |
| COc1cnc(-c2ccccn2)nc1Sc1ccccc1Cl | 18.8 µM |
| Cc1ccsc1/C=C/c1ccc2ccccc2n1 | 25.6 µM |
| COc1cc2c(cc1OC)C(c1ccc(-c3ccccc3Cl)o1)=NCC2 | 21 µM |
| Oc1ccc2ccccc2c1/C=N/Nc1nnc(-c2ncc[nH]2)c2ccccc12 | 2.32 µM |
| O=C(CF)N(O)c1ccc(C=Cc2ccccc2)cc1 | > 26 µM (inactive) |
| CC(=NNc1nc2ccccc2o1)c1cc2ccccc2cn1 | 0.252 µM |
| CC(=NNC(=S)N1CCN(c2ccccn2)CC1)c1nccs1 | 3.52 µM |
| CC(=NNC(=S)Nc1cccc(Cl)c1)c1ccccn1 | 0.687 µM |
| CC(=NNC(=S)Nc1ccccc1Cl)c1ccccn1 | 0.922 µM |
| c1ccc(-c2cccc(-c3ccccn3)n2)nc1 | 1.77 µM |
| COc1ccc(-c2ccc(NC(=O)c3ccco3)cc2)nn1 | 7.75 µM |
| Cc1nc(N)nc(N)c1/C=C/C(C)(C)c1ccc(Cl)cc1 | < 0.011 µM |
| Oc1ccc(C=NNC(=S)Nc2ccccc2)nc1 | 4.96 µM |
| CCc1ccc(Nc2n[n+](-c3ccccc3)c(-c3c(Cl)cccc3Cl)s2)cc1 | 11.2 µM |
| Cc1cccc(-n2ncc(Cl)c(Cl)c2=O)c1 | 5.2 µM |
| O=C(N/N=C/c1cccs1)c1n[nH]c2c1CCCC2 | 27 µM |
| CCN(CC)c1ccc(C(NC(=O)C(C)C)c2ccc3cccnc3c2O)cc1 (configuration not stated) | 4.34 µM |
| CC(=O)NC(c1ccc2ccccc2c1)c1ccc2cccnc2c1O (configuration not stated) | 1.32 µM |
| O=[N+]([O-])c1c(Nc2cccc(O)c2)cc(Cl)c2nonc12 | 4.39 µM |
| COc1cccc(/C=N/Nc2ncnc(Cl)c2N)c1O | 3.23 µM |
| c1ccc(CN2CCN(c3ncnc4c3[nH]c3ccccc34)CC2)cc1 | 11.8 µM |
| O=C1c2cccc3c([N+](=O)[O-])ccc(c23)C(=O)N1c1ccccn1 | 4.11 µM |

| Structure (SMILES) | AC50 |
| --- | --- |
| CC(=O)NC(c1cccc([N+](=O)[O-])c1)c1ccc2cccnc2c1O (configuration not stated) | 3.66 µM |
| Cc1csc(SCC(=O)c2cc(C)n(Cc3cccs3)c2C)n1 | > 26 µM (inactive) |
| COc1cccc(/C=N/Nc2ncccc2[N+](=O)[O-])c1OC | 18.8 µM |
| S=C(NN=Cc1ccccn1)Nc1ccccn1 | 23 µM |
| CS(=O)(=O)c1ncc(Cl)c(C(=O)Nc2ccc(OC(F)F)cc2)n1 | 3.2 µM |
| CN(C)c1ccc(-c2nc3ccccc3n2C)cc1 | 14.1 µM |
| CCc1nc(SCC(=O)c2ccc3c(c2)OCCO3)c2ccccc2n1 | > 26 µM (inactive) |
| COc1ccccc1N(C(C)=O)C1=C(Cl)C(=O)c2ccccc2C1=O | 11.7 µM |
| COc1ccccc1NC(=O)c1c(Nc2ccccc2C)sc(C(=O)Nc2cccc(Cl)c2)c1N | 4.52 µM |
| CC(C)C(=O)NC(c1cccc([N+](=O)[O-])c1)c1ccc2cccnc2c1O (configuration not stated) | 4.33 µM |
| CCCC(=O)NC(c1ccccc1Cl)c1ccc2cccnc2c1O (configuration not stated) | 4.36 µM |
| Cc1csc(N=Nc2ccc(N(C)C)cc2)[n+]1[O-] | 5.71 µM |
| C[n+]1c2n(c3ccccc31)N=C(c1cc(C(C)(C)C)c(O)c(C(C)(C)C)c1)CS2 | 9.45 µM |
| CCN(CC)c1ccc(/C=N/NC(=O)c2cnccn2)c(O)c1 | 3.21 µM |
| COc1ccc(OCc2cccc(C(=O)NN)c2)cc1 | > 26 µM (inactive) |
| CCN1CCN(Cc2ccc(NC(=O)c3ccc(C)c(NC(=O)c4cc(-c5ccc(Br)cc5)n[nH]4)c3)cc2C(F)(F)F)CC1 | 15.6 µM |
| Cc1[nH]n(-c2ccccc2)c(=O)c1/C=N/Nc1nncc(-c2ccccc2)n1 | 2.64 µM |
| CC(C)C(=O)NC(c1ccc(Cl)cc1Cl)c1ccc2cccnc2c1O (configuration not stated) | 3 µM |
| O=C(N/N=C/c1ccc(O)cc1O)c1ccc(CN2C(=O)c3cccc4cccc2c34)cc1 | 9.41 µM |
| c1ccc(CCCN2CCN(CCOC(c3ccccc3)c3ccccc3)CC2)cc1 | 16.5 µM |
| c1ccc(-c2nc(-c3ccccn3)no2)cc1 | 7.87 µM |
| CCN1CCN(Cc2ccc(NC(=O)c3ccc(C)c(NC(=O)c4nccnc4N)c3)cc2C(F)(F)F)CC1 | 23.6 µM |
| CC(=O)NC(c1cccs1)c1cc(F)c2cccnc2c1O (configuration not stated) | 4.67 µM |
| C=CCn1c(O)c(N=NC(=S)Nc2ccccc2F)c2cc(S(=O)(=O)N3CCOCC3)ccc21 | > 26 µM (inactive) |
| CCOc1ccc(C(=O)Nc2cc(C)ccn2)cc1 | 13.8 µM |

| Structure (SMILES) | AC50 |
| --- | --- |
| Cc1cc(Sc2nnc(N)s2)c2ccccc2n1 | 3.34 µM |
| CCC(=O)NC(c1cc(Cl)c2cccnc2c1O)C(C)C (configuration not stated) | 9.32 µM |
| C#CCN(C[C@@H]1[C@@H](OC(=O)NCC2CCCCC2)[C@@H](OC(=O)NCC2CCCCC2)Cn2c(=O)ccc(=O)n21)S(=O)(=O)c1ccc(C)cc1 | 4.63 µM |
| CC(=NNC(=S)N1CCCCCC1)c1ccccn1 | 2.18 µM |
| S=C(NCCCN1CCOCC1)N1CCN(c2nc(-c3ccc(Cl)cc3)cs2)CC1 | > 26 µM (inactive) |
| CCN(CC)c1ccc(/C=N/Nc2nc(C)cc(=O)[nH]2)c(O)c1 | 1.41 µM |
| Nc1nc2ccccc2n1C(=O)c1ccccc1 | > 26 µM (inactive) |
| C(=Cc1cnc2ccccc2n1)c1ccc2c(c1)OCO2 | 1.74 µM |
| O=C(NC1CCCCCCC1)c1cc(COc2ccc3ncccc3c2)on1 | 1.3 µM |
| O=C(CCc1ccccc1)NC(c1cccs1)c1cc(Cl)c2cccnc2c1O (configuration not stated) | 9.28 µM |
| COc1ccc(NC2=NCC(Cc3ccc(Br)cc3)S2)cc1 (configuration not stated) | 26.2 µM |
| Clc1ccc(SCc2cc(N3CCOCC3)nc(-c3ccccn3)n2)cc1 | 14.9 µM |
| CC(C)CC(=NNC(=O)c1ccncc1)c1cc(Cl)ccc1O | 3.12 µM |
| Cc1ccc2[nH]c3c(N4CCN(Cc5ccccc5)CC4)ncnc3c2c1 | 12.2 µM |
| COc1ccc(C=C2CS(=O)(=O)CC(=Cc3ccc(OC)cc3)C2=O)cc1 | 11.8 µM |
| CC(C)OC(=O)c1ccc(NCc2cc(O)ccc2O)cc1Cl | 6.74 µM |
| C#CCN(C[C@@H]1[C@@H](OC(=O)NCc2ccccc2F)[C@@H](OC(=O)NCc2ccccc2F)Cn2c(=O)ccc(=O)n21)S(=O)(=O)c1ccc(C)cc1 | 7.27 µM |
| CCCCC(=O)NC(c1ccc(N(CC)CC)cc1)c1ccc2cccnc2c1O (configuration not stated) | 1.54 µM |
| COc1ccc(Cc2nnc(N/N=C/c3ccc(O)cc3)[nH]c2=O)cc1OC | 3.56 µM |
| O=C(Nc1nc2ccc(F)cc2s1)C1=COCCO1 | 18.7 µM |
| CCOc1cccc(/C=N/Nc2ccc(S(=O)(=O)N(CC)CC)cn2)c1O | 1.69 µM |
| O=C(N/N=C/c1cc2c3c(c1O)CCCN3CCC2)c1ccccc1O | 4.17 µM |
